Test results as given in ChEMBL document CHEMBL1938396, “Synthesis of new praziquantel analogues: potential candidates for the treatment of schistosomiasis” (2012).

system: Schistosoma mansoni; assay: Antischistosomal activity against Schistosoma mansoni assessed as worm survival incubated for overnight followed by drug washout measured on day 7; type: functional

SMILES	LC90 [µM]
Cc1ccc(S(=O)(=O)N2CC(=O)N3CCc4ccccc4C3C2)cc1 (stereo not given)	>10
O=C1C(=O)N2CCc3c(n(Cc4ccccc4)c4ccccc34)C2CN1C(=O)C1CCCC1 (stereo not given)	>100
O=C(c1ccc(C(F)(F)F)cc1)N1CC(=O)N2CCc3c([nH]c4ccccc34)C2C1 (stereo not given)	50
O=C(CC1CCCCC1)N1CC2c3ccccc3CCN2C(=O)C1=O (stereo not given)	>100
O=C(C1CCCCC1)N1CC(=O)N2CCc3c([nH]c4ccccc34)C2C1 (stereo not given)	25
O=C1C(=O)N2CCc3ccccc3C2CN1C(=O)C1CCCCC1 (stereo not given)	>100
O=C(C1CCCC1)N1CC(=O)N2CCc3ccccc3C2C1 (stereo not given)	10
Cc1ccc(S(=O)(=O)N2CC3c4ccccc4CCN3C(=O)C2=O)cc1 (stereo not given)	>100
O=C1C(=O)N2CCc3c(n(Cc4ccccc4)c4ccccc34)C2CN1C(=O)c1ccc(C(F)(F)F)cc1 (stereo not given)	>100
COc1cc2c(cc1OC)C1CN(C(=O)c3ccc(C(F)(F)F)cc3)CC(=O)N1CC2 (stereo not given)	>100
O=C1C(=O)N2CCc3ccccc3C2CN1C(=O)c1ccc(C(F)(F)F)cc1 (stereo not given)	>100
O=C(C1CCCCC1)N1CC(=O)N2CCc3ccccc3C2C1 (stereo not given) [PRAZIQUANTEL]	3
O=C(C1CCCCC1)N1CC(=O)N2CCc3c(n(Cc4ccccc4)c4ccccc34)C2C1 (stereo not given)	25
COc1cc2c(cc1OC)C1CN(C(=O)C3CCCC3)CC(=O)N1CC2 (stereo not given)	25
O=C(CC1CCCCC1)N1CC2c3c(c4ccccc4n3Cc3ccccc3)CCN2C(=O)C1=O (stereo not given)	>100
COc1cc2c(cc1OC)C1CN(S(=O)(=O)c3ccc(C)cc3)CC(=O)N1CC2 (stereo not given)	>100
O=C(c1ccc(C(F)(F)F)cc1)N1CC(=O)N2CCc3c(n(Cc4ccccc4)c4ccccc34)C2C1 (stereo not given)	>100
O=C1C(=O)N2CCc3ccccc3C2CN1C(=O)C1CCCC1 (stereo not given)	>100
COc1cc2c(cc1OC)C1CN(C(=O)C3CCCCC3)CC(=O)N1CC2 (stereo not given)	50
O=C1C(=O)N2CCc3c(n(Cc4ccccc4)c4ccccc34)C2CN1C(=O)C1CCCCC1 (stereo not given)	>100
